Laboratory results from patent publication US12077503B2, “Substituted cyclic amides and their use as herbicides” (FMC CORPORATION, priority 2015, dated 2024).

Legend:
Format in all cases: in vivo
corn (Zea mays) [1] = test: Test G Post-Emergence Protocol; conditions: Zea mays, post-emergence, 312 h; for plant injury at 15.625 g/ha: 15.625 g ai/ha, evaluated after 13 days (100=total damage to plant; 0=no damage to plant), read-out: Corn damage rating; for plant injury at 62.5 g/ha: 62.5 g ai/ha, read-out: Corn damage rating (100=total damage to plant; 0=no damage to plant); for plant injury at 62.5 g/ha / plant injury at 250 g/ha: evaluated after 13 days; for plant injury at 250 g/ha: 250 g ai/ha, read-out: damage to plant, Corn (100=total damage to plant; 0=no damage to plant)
Outline: (§1)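 Pot-grown seedlings, 8 days old, raised in a glasshouse at 24/16 °C day/night with 14 h light and 65% humidity, were sprayed post-emergence with test compound in acetone/water (50:50) plus 0.5% Tween 20 at 15.625, 62.5 or 250 g/ha. Damage was scored visually 13 days later on a 0–100 scale (100 = total damage).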

[2] = tested on: ivy-leaved morning glory (Ipomoea hederacea); test: Test G Post-Emergence Protocol; conditions: Ipomoea, post-emergence, 312 h; for pest or weed control at 15.625 g/ha: 15.625 g ai/ha, evaluated after 13 days (100=total damage to plant; 0=no damage to plant), read-out: Morningglory, Ivy-leaved damage rating; for pest or weed control at 62.5 g/ha: 62.5 g ai/ha, read-out: Morningglory, Ivy-leaved damage rating (100=total damage to plant; 0=no damage to plant); for pest or weed control at 62.5 g/ha / pest or weed control at 250 g/ha: evaluated after 13 days; for pest or weed control at 250 g/ha: 250 g ai/ha, read-out: damage to plant, Morningglory, Ivy-leaved (100=total damage to plant; 0=no damage to plant)
Outline: as §1

[3] = tested on: giant foxtail (Setaria faberi); test: Test G Post-Emergence Protocol; conditions: Setaria faberi, post-emergence, 312 h; for pest or weed control at 15.625 g/ha: 15.625 g ai/ha, evaluated after 13 days (100=total damage to plant; 0=no damage to plant), read-out: Foxtail, Giant damage rating; for pest or weed control at 62.5 g/ha: 62.5 g ai/ha, read-out: Foxtail, Giant damage rating (100=total damage to plant; 0=no damage to plant); for pest or weed control at 62.5 g/ha / pest or weed control at 250 g/ha: evaluated after 13 days; for pest or weed control at 250 g/ha: 250 g ai/ha, read-out: damage to plant, Foxtail, Giant (100=total damage to plant; 0=no damage to plant)
Outline: as §1

[4] = tested on: redroot pigweed (Amaranthus retroflexus); test: Test G Post-Emergence Protocol; conditions: Amaranthus retroflexus, post-emergence, 312 h; for pest or weed control at 15.625 g/ha: 15.625 g ai/ha, evaluated after 13 days (100=total damage to plant; 0=no damage to plant), read-out: Pigweed, Redroot damage rating; for pest or weed control at 62.5 g/ha: 62.5 g ai/ha, read-out: Pigweed, Redroot damage rating (100=total damage to plant; 0=no damage to plant); for pest or weed control at 62.5 g/ha / pest or weed control at 250 g/ha: evaluated after 13 days; for pest or weed control at 250 g/ha: 250 g ai/ha, read-out: damage to plant, Pigweed, Redroot (100=total damage to plant; 0=no damage to plant)
Outline: as §1

[5] = tested on: velvetleaf (Abutilon theophrasti); test: Test G Post-Emergence Protocol; conditions: Abutilon theophrasti, post-emergence, 312 h; for pest or weed control at 15.625 g/ha: 15.625 g ai/ha, evaluated after 13 days (100=total damage to plant; 0=no damage to plant), read-out: Velvetleaf damage rating; for pest or weed control at 62.5 g/ha: 62.5 g ai/ha, read-out: Velvetleaf damage rating (100=total damage to plant; 0=no damage to plant); for pest or weed control at 62.5 g/ha / pest or weed control at 250 g/ha: evaluated after 13 days; for pest or weed control at 250 g/ha: 250 g ai/ha, read-out: damage to plant, Velvetleaf (100=total damage to plant; 0=no damage to plant)
Outline: as §1

[6] = tested on: barnyardgrass (Echinochloa crus-galli); test: Test G Post-Emergence Protocol; conditions: Echinochloa crus-galli, post-emergence, 312 h; for pest or weed control at 15.625 g/ha: 15.625 g ai/ha, evaluated after 13 days (100=total damage to plant; 0=no damage to plant), read-out: Barnyardgrass damage rating; for pest or weed control at 62.5 g/ha: 62.5 g ai/ha, read-out: Barnyardgrass damage rating (100=total damage to plant; 0=no damage to plant); for pest or weed control at 62.5 g/ha / pest or weed control at 250 g/ha: evaluated after 13 days; for pest or weed control at 250 g/ha: 250 g ai/ha, read-out: damage to plant, Barnyardgrass (100=total damage to plant; 0=no damage to plant)
Outline: as §1

corn (Zea mays) [7] = test: Test G Pre-Emergence Protocol; conditions: Zea mays, pre-emergence, 312 h, evaluated after 13 days; for plant injury at 15.625 g/ha: 15.625 g ai/ha; for plant injury at 15.625 g/ha / plant injury at 250 g/ha: read-out: Corn damage rating (100=total damage to plant; 0=no damage to plant); for plant injury at 62.5 g/ha: 62.5 g ai/ha, 100=total damage to plant, 0=no damage to plant, read-out: plant damage rating, Corn; for plant injury at 250 g/ha: 250 g ai/ha
Outline: (§2)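 Pots of seeds in standard soil were grown for one day in a glasshouse (24/16 °C day/night, 14 h light, 65% humidity), then sprayed with compound in acetone/water 50:50 with 0.5% Tween 20 at 15.625, 62.5 or 250 g/ha. Damage was scored after 13 days on a 0 (none) to 100 (total) scale.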

[8] = tested on: ivy-leaved morning glory (Ipomoea hederacea); test: Test G Pre-Emergence Protocol; conditions: Ipomoea, pre-emergence, 312 h, evaluated after 13 days; for pest or weed control at 15.625 g/ha: 15.625 g ai/ha, read-out: Morning-glory, Ivy-leaved damage rating (100=total damage to plant; 0=no damage to plant); for pest or weed control at 62.5 g/ha: 62.5 g ai/ha, 100=total damage to plant, 0=no damage to plant, read-out: plant damage rating, Morningglory, Ivy-leaved; for pest or weed control at 250 g/ha: 250 g ai/ha, read-out: Morningglory, Ivy-leaved damage rating (100=total damage to plant; 0=no damage to plant)
Outline: as §2

[9] = tested on: giant foxtail (Setaria faberi); test: Test G Pre-Emergence Protocol; conditions: Setaria faberi, pre-emergence, 312 h, evaluated after 13 days; for pest or weed control at 15.625 g/ha: 15.625 g ai/ha; for pest or weed control at 15.625 g/ha / pest or weed control at 250 g/ha: read-out: Foxtail, Giant damage rating (100=total damage to plant; 0=no damage to plant); for pest or weed control at 62.5 g/ha: 62.5 g ai/ha, 100=total damage to plant, 0=no damage to plant, read-out: plant damage rating, Foxtail, Giant; for pest or weed control at 250 g/ha: 250 g ai/ha
Outline: as §2

[10] = tested on: redroot pigweed (Amaranthus retroflexus); test: Test G Pre-Emergence Protocol; conditions: Amaranthus retroflexus, pre-emergence, 312 h, evaluated after 13 days; for pest or weed control at 15.625 g/ha: 15.625 g ai/ha; for pest or weed control at 15.625 g/ha / pest or weed control at 250 g/ha: read-out: Pigweed, Redroot damage rating (100=total damage to plant; 0=no damage to plant); for pest or weed control at 62.5 g/ha: 62.5 g ai/ha, 100=total damage to plant, 0=no damage to plant, read-out: plant damage rating, Pigweed, Redroot; for pest or weed control at 250 g/ha: 250 g ai/ha
Outline: as §2

[11] = tested on: velvetleaf (Abutilon theophrasti); test: Test G Pre-Emergence Protocol; conditions: Abutilon theophrasti, pre-emergence, 312 h, evaluated after 13 days; for pest or weed control at 15.625 g/ha: 15.625 g ai/ha; for pest or weed control at 15.625 g/ha / pest or weed control at 250 g/ha: read-out: Velvetleaf damage rating (100=total damage to plant; 0=no damage to plant); for pest or weed control at 62.5 g/ha: 62.5 g ai/ha, 100=total damage to plant, 0=no damage to plant, read-out: plant damage rating, Velvetleaf; for pest or weed control at 250 g/ha: 250 g ai/ha
Outline: as §2

[12] = tested on: barnyardgrass (Echinochloa crus-galli); test: Test G Pre-Emergence Protocol; conditions: Echinochloa crus-galli, pre-emergence, 312 h, evaluated after 13 days; for pest or weed control at 15.625 g/ha: 15.625 g ai/ha, read-out: Barnyard grass damage rating (100=total damage to plant; 0=no damage to plant); for pest or weed control at 62.5 g/ha: 62.5 g ai/ha, 100=total damage to plant, 0=no damage to plant, read-out: plant damage rating, Barnyardgrass; for pest or weed control at 250 g/ha: 250 g ai/ha, read-out: Barnyardgrass damage rating (100=total damage to plant; 0=no damage to plant)
Outline: as §2

SMILES	plant injury at 15.625 g/ha (corn (Zea mays) [1])	plant injury at 62.5 g/ha (corn (Zea mays) [1])	plant injury at 250 g/ha (corn (Zea mays) [1])	pest or weed control at 15.625 g/ha [2]	pest or weed control at 62.5 g/ha [2]	pest or weed control at 250 g/ha [2]	pest or weed control at 15.625 g/ha [3]	pest or weed control at 62.5 g/ha [3]	pest or weed control at 250 g/ha [3]	pest or weed control at 15.625 g/ha [4]	pest or weed control at 62.5 g/ha [4]	pest or weed control at 250 g/ha [4]	pest or weed control at 15.625 g/ha [5]	pest or weed control at 62.5 g/ha [5]	pest or weed control at 250 g/ha [5]	pest or weed control at 15.625 g/ha [6]	pest or weed control at 62.5 g/ha [6]	pest or weed control at 250 g/ha [6]	plant injury at 15.625 g/ha (corn (Zea mays) [7])	plant injury at 62.5 g/ha (corn (Zea mays) [7])	further results
CN1C[C@@H](c2ccc(C(F)(F)F)cc2)[C@H](C(=O)Nc2cn(C)nn2)C1=O (racemic) [Compound 1527]	10%	10%	10%	0%	0%	0%	0%	0%	0%	0%	0%	0%	0%	0%	0%	0%	0%	0%	0%	0%	plant injury at 250 g/ha (corn (Zea mays) [7]): 0%; pest or weed control at 15.625 g/ha [8]: 0%; pest or weed control at 62.5 g/ha [8]: 0%; pest or weed control at 250 g/ha [8]: 0%; pest or weed control at 15.625 g/ha [9]: 0%; pest or weed control at 62.5 g/ha [9]: 0%; pest or weed control at 250 g/ha [9]: 0%; pest or weed control at 15.625 g/ha [10]: 0%; pest or weed control at 62.5 g/ha [10]: 0%; pest or weed control at 250 g/ha [10]: 0%; pest or weed control at 15.625 g/ha [11]: 0%; pest or weed control at 62.5 g/ha [11]: 0%; pest or weed control at 250 g/ha [11]: 0%; pest or weed control at 15.625 g/ha [12]: 0%; pest or weed control at 62.5 g/ha [12]: 0%; pest or weed control at 250 g/ha [12]: 0%
CN1C[C@@H](c2ccc(C(F)(F)F)cc2)[C@H](C(=O)Nc2cnn(C)n2)C1=O (racemic) [Compound 1531]	0%	0%	10%	0%	0%	0%	0%	0%	0%	0%	0%	0%	0%	0%	0%	0%	0%	0%	0%	0%	plant injury at 250 g/ha (corn (Zea mays) [7]): 0%; pest or weed control at 15.625 g/ha [8]: 0%; pest or weed control at 62.5 g/ha [8]: 0%; pest or weed control at 250 g/ha [8]: 0%; pest or weed control at 15.625 g/ha [9]: 0%; pest or weed control at 62.5 g/ha [9]: 0%; pest or weed control at 250 g/ha [9]: 0%; pest or weed control at 15.625 g/ha [10]: 0%; pest or weed control at 62.5 g/ha [10]: 0%; pest or weed control at 250 g/ha [10]: 0%; pest or weed control at 15.625 g/ha [11]: 0%; pest or weed control at 62.5 g/ha [11]: 0%; pest or weed control at 250 g/ha [11]: 0%; pest or weed control at 15.625 g/ha [12]: 0%; pest or weed control at 62.5 g/ha [12]: 0%; pest or weed control at 250 g/ha [12]: 0%
CN1C[C@@H](c2ccc(C(F)(F)F)cc2)[C@H](C(=O)Nc2c[nH]nc2C(F)(F)F)C1=O (racemic) [Compound 1535]	0%	0%	10%	0%	0%	0%	0%	0%	0%	0%	10%	30%	0%	0%	0%	0%	0%	0%	0%	0%	plant injury at 250 g/ha (corn (Zea mays) [7]): 0%; pest or weed control at 15.625 g/ha [8]: 0%; pest or weed control at 62.5 g/ha [8]: 0%; pest or weed control at 250 g/ha [8]: 0%; pest or weed control at 15.625 g/ha [9]: 0%; pest or weed control at 62.5 g/ha [9]: 0%; pest or weed control at 250 g/ha [9]: 0%; pest or weed control at 15.625 g/ha [10]: 0%; pest or weed control at 62.5 g/ha [10]: 20%; pest or weed control at 250 g/ha [10]: 40%; pest or weed control at 15.625 g/ha [11]: 0%; pest or weed control at 62.5 g/ha [11]: 0%; pest or weed control at 250 g/ha [11]: 0%; pest or weed control at 15.625 g/ha [12]: 0%; pest or weed control at 62.5 g/ha [12]: 0%; pest or weed control at 250 g/ha [12]: 0%
